From publication PMC8682738, “Constrained peptides mimic a viral suppressor of RNA silencing” (Nucleic Acids Research, 2021) come the findings set out here.

Each structure is given as a SMILES string. Values joined by “and” are separate entries in the source; they are usually repeats but may differ in a detail not shown here. Equal entries are not always repeated. Positions of bridges follow the written chain, without caps; N, C: chain ends. Non-standard residues stand in square brackets, D forms with d. Residues, ends and D or L forms follow the SMILES beside them. *: point of attachment. FITC = O=C1OC2(c3ccc(O)cc3Oc3cc(O)ccc32)c2ccc(NC(=S)*)cc21; R8 = C=CCCCCCC[C@@](C)(N)C(=O)O; S5 = C=CCCC[C@](C)(N)C(=O)O; AEEA = NCCOCCOCC(=O)O

Data set [1] is described as follows: CD spectroscopy, secondary structure content. The class given is physicochemical. The settings on record: fluorescein-labeled peptide 75 μM, 10 mM sodium phosphate pH 7.4, CDNN/PEPFIT; for Helix (α-helicity): unbound. As to the method:
Spectra of fluorescein-labeled peptides were recorded with a J-715 circular dichroism spectrometer (Jasco) using a stoppered quartz cuvette (1 mm; Hellma). Peptide samples (c = 75 μM) were prepared in buffer: 10 mM disodium hydrogen phosphate, pH 7.4. For each sample, 10 CD spectra were measured between λ = 190 and 260 nm with continuous scan mode (10 mdeg sensitivity, 1.0 nm resolution, 1.0 nm bandwidth, 2 s integration time, 50 nm/min scan rate). Obtained spectra were averaged, then subtracted from a reference buffer spectrum and smoothed using a fast Fourier transform filter (FFT filter). The mean residue ellipticity (Θ) (deg·cm^2·dmol^−1·10^4) was calculated using Formula (2) and plotted against wavelength (λ) (nm). The ratio of secondary structure elements was calculated with CDNN using the PEPFIT set of reference spectra for secondary structure determination ([45],[46]):(2) where [Θ]m = mean molar ellipticity per peptide bond (degree·cm^2·dmol^−1·10^4), Θ = measured ellipticity (degree), d = optical path length (cm), cg = mass concentration (g·l^−1), MRW = mean residue weight, M = molar mass of the peptide (g·mol^−1) and N = number of peptide bonds.

Data set [2] has as its target proteinase K (Parengyodontium album, UniProt P06873). Briefly: Protease stability assay. The settings on record: proteinase K 10 μg·ml^−1, fluorescein-labeled peptide 50 μM, 10 mM Tris pH 8.0, 150 mM NaCl, room temperature, HPLC absorbance 210 nm, exponential decay fit. The data set is classed as in vitro ADME. The procedure:
Protease stability assays were performed in analogy to a previously published protocol ([47]). Stocks of fluorescein-labeled peptides were prepared to a concentration of 55.5 μM in assay buffer (10 mM Tris, pH 8.0, 150 mM NaCl) and separately stocks of proteinase K also in assay buffer (c = 100 μg·ml^−1). To begin each experiment, peptide and proteinase K stocks were mixed (final concentrations: c = 10 μg·ml^−1 proteinase K, c = 50 μM fluorescein-labeled peptide; final volume = 500 μl) and incubated at room temperature. At each time point, 50 μl of the reaction mixture was quenched by adding 100 μl of TFA/ACN/H2O (v/v/v, 1:49:49) and subsequently incubated for 2 min on ice. Following centrifugation (15 min, 13200 rpm, 4°C), samples (45 μl) were monitored by analytical HPLC using a linear gradient of 10–60% HPLC solvent B over 20 min. The amount of remaining peptide was quantified via absorbance at λ = 210 nm (intact peptide (%)) and plotted against time (t) (h). Half-life (t1/2) was calculated by fitting the data to an exponential decay using the software Prism 5.0 (GraphPad).

For data set [3], the target named is pal-RNA duplex. Briefly: ITC of N-terminally acetylated peptides with pal-RNA duplex. The class given is binding. As to the method: Isothermal titration calorimetry (ITC) was conducted using a MicroCal VP-ITC (Malvern Panalytical). Before measurement, oligonucleotide and peptide samples were dissolved in PBS and degassed using a ThermoVac (Malvern Panalytical) and heated to 30°C. N-terminally acetylated peptides (c = 3–12 μM) were then transferred into the sample cell and oligonucleotides (c = 12–72 μM) were transferred into the syringe. 35 Injections per measurement were performed at 30°C (8 μl injection volume, 2 s injection time, 180 s spacing, high feedback mode) with an initial delay of 60 s and a stirring speed of 307 rpm. Measurements were performed in triplicate. Using the MicroCal LLC ITC software (Origin; OriginLab Corporation), the heat associated with each injection was calculated by integrating the area under the curve in microcalories per second [μca/s] versus time [min] for each injection and then normalized to concentration. A ‘single set of identical binding sites’ model was used to fit the binding curves from which thermodynamic binding parameters (ΔG, ΔH, ΔS, N and Kd) were obtained.

In data set [4] the test system is ds pal-RNA. Briefly: EMSA with ds pal-RNA. The data set is classed as binding. As to conditions: fluorescein-labeled peptide 6 μM, RNA 3 μM, 10% native PAGE, 4°C. As to the method:
Electrophoretic mobility shift assays (EMSAs) were performed using a Bio-Rad Mini-Protean gel system paired with a direct current (DC) power source (PowerPac™ HC, Bio-Rad). Typically, 6 μl solutions containing ds RNA (c = 3 μM) and fluorescein-labeled peptide (c = 6 μM) were incubated in binding buffer (10 mM Tris (pH 8.0), 0.5 mM EDTA, 12.5% glycerol and 150 mM KCl) at 4°C for 1 h. After incubation, bound RNA was resolved from peptide-free RNA using 10% non-denaturing polyacrylamide gels at 120 V in running buffer (25 mM Tris (pH 8.0), 200 mM glycine, 20 mM NaCl) at 4°C for 1 h. Visualization of fluorescent gel-bound species was conducted using a Typhoon Trio + fluorescence scanner (GE Healthcare Life Sciences). For nucleic acid visualization, gels were stained using 2 μl of SYBR™ gold nucleic acid gel dye (Molecular Probes) in 20 ml of TAE buffer (40 mM Tris, 1 mM EDTA, 20 mM acetic acid) for 45 min at RT before being visualized using a FluorChem™ gel documentation system (Alpha Innotech). To assess B3 binding to different ds RNA sequences (Supplementary Figure S20), 6 μl solutions containing hairpin RNA (c = 1 μM) and fluorescein-labeled B3 (c = 2 μM) were incubated in binding buffer (TAE and 10% glycerol) at RT for 1 h, and then resolved using 15% non-denaturing polyacrylamide gels (acrylamide/bis-acrylamide (19:1) in TAE) at 150 V in running buffer (TAE) at 4°C for 1.5 h. Visualization of fluorescent gel-bound species was conducted using a Bio-Rad ChemiDoc (Bio-Rad). Subsequently, gels were stained with SYBR™ gold nucleic acid gel dye (Invitrogen) as described above and visualized using the same imaging system. To assess B3 binding to pre–miR-21 (Supplementary Figure S24), the RNA was prepared at a fixed concentration (c = 1 μM) and incubated with varying concentrations of fluorescein-labeled B3 (c = 0–5 μM) in binding buffer (TAE and 10% glycerol) at RT for 1 h. After incubation, bound nucleic acid complexes were resolved using 15% non-denaturing polyacrylamide gels (acrylamide/bis-acrylamide (19:1) in TAE) at 150 V in running buffer (TAE) at 4°C for 1.5 h, followed by visualization and staining with SYBR™ gold nucleic acid gel dye (Invitrogen).
(In general: Mobility shift assays separate free from complexed probe on a gel.)

Chain of proteinase K (P06873 106-384): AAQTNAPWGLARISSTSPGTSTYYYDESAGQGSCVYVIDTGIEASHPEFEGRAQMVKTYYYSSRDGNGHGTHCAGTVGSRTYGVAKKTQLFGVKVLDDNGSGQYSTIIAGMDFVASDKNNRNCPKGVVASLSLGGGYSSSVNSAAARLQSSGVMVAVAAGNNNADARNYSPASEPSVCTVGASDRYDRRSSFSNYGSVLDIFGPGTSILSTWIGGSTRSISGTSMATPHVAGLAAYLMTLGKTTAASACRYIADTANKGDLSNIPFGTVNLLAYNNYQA

As to `CC(C)C[C@H](NC(=O)[C@H](CCC(=O)O)NC(=O)[C@H](CO)NC(=O)[C@H](CCCNC(=N)N)NC(=O)[C@H](CCCNC(=N)N)NC(=O)[C@H](CCC(N)=O)NC(=O)[C@H](CCC(=O)O)NC(=O)[C@H](CO)NC(=O)[C@@H]1CCCN1C(=O)[C@H](CO)NC(=O)[C@H](CCCCN)NC(=O)[C@H](Cc1c[nH]cn1)NC(=O)CNC(=O)[C@H](CCCNC(=N)N)NC(=O)[C@]1(C)CCCC=CCCC[C@](C)(NC(=O)[C@H](CCCCN)NC(=O)[C@H](Cc2c[nH]cn2)NC(=O)[C@H](CCCNC(=N)N)NC(=O)[C@H](CCCCN)NC(=O)[C@H](CCCNC(=N)N)NC(=O)[C@H](CCC(N)=O)NC(=O)[C@H](C)NC(=O)[C@H](CCC(N)=O)NC(=O)[C@H](CCCCN)NC(=O)[C@H](CCCCN)NC(=O)COCCOCCNC(=S)Nc2ccc3c(c2)C(=O)OC32c3ccc(O)cc3Oc3cc(O)ccc32)C(=O)N[C@@H](CC(N)=O)C(=O)N[C@@H](CCCNC(=N)N)C(=O)N[C@@H](CCCCN)C(=O)N1)C(=O)N[C@@H](Cc1c[nH]c2ccccc12)C(=O)N[C@@H](Cc1c[nH]cn1)C(=O)N[C@@H](C)C(=O)N[C@@H](CCCNC(=N)N)C(N)=O` [A3] ({FITC-AEEA}-KKQAQRKRHK[S5]NRK[S5]RGHKSPSEQRRSELWHAR-NH2; staple 11-15), the half-life t1/2 was 3 min. In addition, in data set [1], the Random coil worked out at 52.8%, the β-Sheet amounted to 10.6%, the β-Turn is listed as 10.1% and the “Helix (α-helicity)” value is given as 24.0%. The “Half-life (t1/2)” value in data set [2] amounted to 3.5 min.
What is called Kd is the concentration at which binding is half-saturated. Lower therefore signals tighter binding. For the compound `CC(C)C[C@H](NC(=O)[C@]1(C)CCCC=CCCC[C@](C)(NC(=O)[C@H](CCC(=O)O)NC(=O)[C@H](CO)NC(=O)[C@@H]2CCCN2C(=O)[C@H](CO)NC(=O)[C@H](CCCCN)NC(=O)[C@H](Cc2c[nH]cn2)NC(=O)CNC(=O)[C@H](CCCNC(=N)N)NC(=O)[C@H](CCC(=O)O)NC(=O)[C@H](CCCCN)NC(=O)[C@H](CCCNC(=N)N)NC(=O)[C@H](CC(N)=O)NC(=O)[C@]2(C)CCCC=CCCCCCC[C@@](C)(NC(=O)[C@H](CCC(N)=O)NC(=O)[C@H](CCCCN)NC(=O)[C@H](CCCCN)NC(=O)COCCOCCNC(=S)Nc3ccc4c(c3)C(=O)OC43c4ccc(O)cc4Oc4cc(O)ccc43)C(=O)N[C@@H](CCC(N)=O)C(=O)N[C@@H](CCCNC(=N)N)C(=O)N[C@@H](CCCCN)C(=O)N[C@@H](CCCNC(=N)N)C(=O)N[C@@H](Cc3c[nH]cn3)C(=O)N[C@@H](CCCCN)C(=O)N2)C(=O)N[C@@H](CCCNC(=N)N)C(=O)N[C@@H](CCCNC(=N)N)C(=O)N[C@@H](CO)C(=O)N1)C(=O)N[C@@H](Cc1c[nH]c2ccccc12)C(=O)N[C@@H](Cc1c[nH]cn1)C(=O)N[C@@H](C)C(=O)N[C@@H](CCCNC(=N)N)C(N)=O` [B1] ({FITC-AEEA}-KKQ[R8]QRKRHK[S5]NRKERGHKSPSE[S5]RRS[S5]LWHAR-NH2; staple 4-11, 24-28), in data set [1], the Random coil amounted to 13.8%; the β-Sheet worked out at 19.0%; the β-Turn came out at 13.1%; the “Helix (α-helicity)” value was 81.8% and 82–85%. The compound further gave a Kd in data set [3] (N-terminally acetylated peptide, PBS pH 7.4, 30°C, single set of identical binding sites model, triplicate, errors 1σ) of 260 nM. The “fold increased affinity compared to linear peptide wt33” value in data set [3] (unlabeled analogs, pal-RNA) is given as 5 fold. In data set [4], the “binding to ds pal-RNA in EMSA” value is given as “full disappearance of the ds pal-RNA band”. In addition, the “Half-life (t1/2)” value in data set [2] is recorded as 829 min.
The compound `CC(C)C[C@H](NC(=O)[C@H](CCC(=O)O)NC(=O)[C@H](CO)NC(=O)[C@H](CCCNC(=N)N)NC(=O)[C@H](CCCNC(=N)N)NC(=O)[C@H](CCC(N)=O)NC(=O)[C@H](CCC(=O)O)NC(=O)[C@H](CO)NC(=O)[C@@H]1CCCN1C(=O)[C@H](CO)NC(=O)[C@H](CCCCN)NC(=O)[C@H](Cc1c[nH]cn1)NC(=O)CNC(=O)[C@H](CCCNC(=N)N)NC(=O)[C@H](CCC(=O)O)NC(=O)[C@H](CCCCN)NC(=O)[C@H](CCCNC(=N)N)NC(=O)[C@H](CC(N)=O)NC(=O)[C@]1(C)CCCC=CCCC[C@](C)(NC(=O)[C@H](CCCNC(=N)N)NC(=O)[C@H](CCC(N)=O)NC(=O)[C@H](C)NC(=O)[C@H](CCC(N)=O)NC(=O)[C@H](CCCCN)NC(=O)[C@H](CCCCN)NC(=O)COCCOCCNC(=S)Nc2ccc3c(c2)C(=O)OC32c3ccc(O)cc3Oc3cc(O)ccc32)C(=O)N[C@@H](CCCNC(=N)N)C(=O)N[C@@H](Cc2c[nH]cn2)C(=O)N[C@@H](CCCCN)C(=O)N1)C(=O)N[C@@H](Cc1c[nH]c2ccccc12)C(=O)N[C@@H](Cc1c[nH]cn1)C(=O)N[C@@H](C)C(=O)N[C@@H](CCCNC(=N)N)C(N)=O` [A2] ({FITC-AEEA}-KKQAQR[S5]RHK[S5]NRKERGHKSPSEQRRSELWHAR-NH2; staple 7-11) yielded a half-life t1/2 of 3 min. In addition, in data set [1], the Random coil was 51.3%, the β-Sheet was 21.6%, the β-Turn came out at 7.9% and the “Helix (α-helicity)” value came to 21.9%. In addition, the “Half-life (t1/2)” value in data set [2] worked out at 2.3 min.
